In PMC11459923, “Identification of novel and potent inhibitors of SARS-CoV-2 main protease from DNA-encoded chemical libraries” (Antimicrobial Agents and Chemotherapy, 2024):
Where two headings read alike, the source gives them in different places.

Assays:
[1] = test system: M^pro; conditions: read-out: IC50 M^pro; cited from earlier work
[2] = in vitro; conditions: human, Caco-2
[3] = test system: SARS-CoV-2; test: microbe, parasite or virus in culture; assay type: cell-based
[4] = target: T1, SARS-CoV-2 M^pro (Severe acute respiratory syndrome coronavirus 2, UniProt P0DTD1); test: In vitro FRET enzymatic assay (screening at 1 µM and SAR IC50); assay type: biochemical; conditions: read-out: IC50 ± SEM
[5] = target: avi-tagged SARS-CoV-2 M^pro (Severe acute respiratory syndrome coronavirus 2, UniProt P0DTD1); assay type: binding
[6] = target: T2, human cathepsin S (Homo sapiens, UniProt P25774); test: Counter assay screening, SensoLyte 440 cathepsin S kit; assay type: biochemical; conditions: for Inhibitory activity against human Cathepsin S: concentrations 50 to 0.00085 µM; for IC50: tested up to 50 µM
T2 construct: purchased Anaspec, Inc. SensoLyte 440 cathepsin S Assay Kit (catalogue number not given)
T2 sequence (P25774 115-331): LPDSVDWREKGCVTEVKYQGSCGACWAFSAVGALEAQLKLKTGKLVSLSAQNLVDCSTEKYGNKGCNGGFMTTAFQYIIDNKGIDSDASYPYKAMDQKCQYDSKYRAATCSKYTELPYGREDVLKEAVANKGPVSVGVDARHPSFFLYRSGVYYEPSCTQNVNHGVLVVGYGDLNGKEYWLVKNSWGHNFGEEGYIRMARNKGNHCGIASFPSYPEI

[7] = target: T1, SARS-CoV-2 M^pro; test: Mpro protease activity assay (FRET, used for Table 1); assay type: biochemical
[8] = in vitro; conditions: mouse, microsomes
[9] = mouse; for Metabolic stability: microsomes
[10] = human; for Metabolic stability: microsomes
[11] = in vitro; conditions: human, microsomes
[12] = 75 nM M^pro, 10 µM substrate, 11-point series from 50 µM

SMILES | Enrichment score M^pro [5] | Enrichment score M^pro +GC376 [5] | Inhibitory activity against human Cathepsin S [6] | IC50 [6] | IC50 [7, 12] | IC50 M^pro ([7]; off-DNA synthesized DECL hits) | other results
CC(C)C[C@H](NC(=O)OCc1ccccc1)C(=O)N[C@@H](CC1CCNC1=O)C(O)S(=O)(=O)O (stereo partly drawn) [GC376] | – | – | – | – | – | – | IC50 [1]: 0.15 µM
N#Cc1cc(C(=O)N[C@H](CC2CCC2)C(=O)N[C@H](CC(=O)N[C@H](Cc2ccncc2)C(=O)O)Cc2c[nH]c3ccccc23)ccn1 [MP1] | – | – | – | – | – | – | Papp A→B [2]: 54 nm/s; Papp B→A [2]: 25 nm/s; Protective effect on infected Calu-3 (CPE) [3]: no protective effect; EC50 ([3]; Severe acute respiratory syndrome coronavirus 2, Calu-3, 48 h, read-out: EC50 inhibition of CPE development): 2.3 µM
CCCC[C@@H](NC(=O)c1ccnc(C#N)c1)C(=O)N[C@H](CC(=O)N[C@H](Cc1ccncc1)C(=O)O)Cc1c[nH]c2ccccc12 [MP9] | – | – | – | – | – | – | IC50 [4]: 0.139 ± 0.049 µM
CCCCC(NC(=O)CC(Cc1c[nH]c2ccccc12)NC(=O)C(Cc1ccccc1)NC(=O)c1ccnc(C#N)c1)C(=O)NC (stereo not drawn) [SLL07] | 135,654 | 0 | no inhibitory activity | > 50 µM | 0.14 µM | low nanomolar range | –
CNC(=O)[C@@H](CSCNC(C)=O)NC(=O)c1ccc2cncc(-c3ccc(Oc4ccccc4)nc3)c2n1 [SLL08] | 11,444 | 676 | no inhibitory activity | > 50 µM | > 50 µM | – | –
CNC(=O)C(Cc1ccncc1)NC(=O)CC(Cc1c[nH]c2ccccc12)NC(=O)C(CC1CCC1)NC(=O)c1ccnc(C#N)c1 (stereo not drawn) [SLL11] | 515,485 | 206,982 | no inhibitory activity | > 50 µM | 0.03 µM | low nanomolar range | microsomal CLint [8]: 154 µL/min/mg; In vitro half time [9]: 9 min; Metabolic stability [9]: low metabolic stability; In vitro half time [10]: 10 min; Metabolic stability [10]: low metabolic stability; microsomal CLint [11]: 139 µL/min/mg; IC50 ([7]; off-DNA synthesized DECL hits): ≤ 0.03 µM
CCCC[C@@H](NC(=O)c1ccnc(C#N)c1)C(=O)N[C@H](CC(=O)N[C@H](Cc1ccncc1)C(=O)NC)Cc1c[nH]c2ccccc12 [SLL12] | 488,354 | 0 | no inhibitory activity | > 50 µM | 0.053 µM | low nanomolar range | microsomal CLint [8]: 170 µL/min/mg; In vitro half time [9]: 8 min; Metabolic stability [9]: low metabolic stability; In vitro half time [10]: 11 min; Metabolic stability [10]: low metabolic stability; microsomal CLint [11]: 131 µL/min/mg
